Assay [1] deals with Tetranychus cinnabarinus mite eggs. The assay can be described thus: Activity against mite eggs, dipping method on bean seedling leaves. The assay is classed as in vivo. The note with it: for mortality at 0.1 µg/mL / mortality at 1 µg/mL / mortality at 10 µg/mL / mortality at 100 µg/mL / mortality at 200 µg/mL / mortality at 0.001 µg/mL / mortality at 0.01 µg/mL / mortality at 0.5 µg/mL: Tetranychus cinnabarinus, 96 h, checked after 4 days; for mortality at 0.1 µg/mL: read-out: mortality of mite eggs (%), 0.1 mg/L; for mortality at 1 µg/mL: read-out: mortality of mite eggs (%), 1 mg/L; for mortality at 10 µg/mL: read-out: mortality of mite eggs (%), 10 mg/L; for mortality at 100 µg/mL: read-out: mortality of mite eggs (%), 100 mg/L; for mortality at 200 µg/mL: read-out: mortality of mite eggs (%), 200 mg/L; for mortality at 0.001 µg/mL: read-out: mortality of mite eggs (%), 0.001 mg/L; for mortality at 0.01 µg/mL: read-out: mortality of mite eggs (%), 0.01 mg/L; for mortality at 0.5 µg/mL: read-out: mortality of mite eggs (%), 0.5 mg/L; for activity on mite eggs, times that of etoxazole: relative to etoxazole. The text has this: (§1) The assay examples are used to illustrate the acaricidal activity against Tetranychus cinnabarinus (mortality of mite larvae and mortality of mite eggs) of the compounds having the structure represented by formula (I), and the results are shown in tables 1 to 9, where mortality of mite larvae % =(number of dead mite larvae applied/total number of mite larvae applied)×100, and mortality of mite eggs %= (number of dead mite eggs applied/total number of mite eggs applied)×100.
Tetranychus cinnabarinus bred indoors on bean seedlings was used as a test subject by the dipping method. Move female adult mites onto the newly grown complete bean seedling leaves with two leaves, cut off the bean seedlings, place the bean seedlings in a greenhouse with illumination at 25° C. for laying eggs for 24 hours, then remove adult mites and keep mite eggs. After continuously culturing in the greenhouse for one day, completely soak the bean seedling leaves containing the acarid eggs into the prepared sample solution to be tested for 5-6 seconds by using tweezers, slightly throw off residual liquid, put the bean seedling leaves back to the culture cup, continuously culture for 4 days and then check the result. One of the plants was immersed in a solution containing no sample to be tested and the remaining additives were identical to the sample solution as a blank control. Each compound was replicated three times.

Assay [2] relates to Tetranychus cinnabarinus mite larvae. Briefly: Larvicidal activity test, dipping method on bean seedling leaves. The format is in vivo. The note with it: for mortality at 0.1 µg/mL / mortality at 1 µg/mL / mortality at 10 µg/mL / mortality at 100 µg/mL / mortality at 200 µg/mL / mortality at 0.001 µg/mL / mortality at 0.01 µg/mL / mortality at 0.5 µg/mL: Tetranychus cinnabarinus, 96 h, checked after 4 days; for mortality at 0.1 µg/mL: read-out: mortality of mite larvae (%), 0.1 mg/L; for mortality at 1 µg/mL: read-out: mortality of mite larvae (%), 1 mg/L; for mortality at 10 µg/mL: read-out: mortality of mite larvae (%), 10 mg/L; for mortality at 100 µg/mL: read-out: mortality of mite larvae (%), 100 mg/L; for mortality at 200 µg/mL: read-out: mortality of mite larvae (%), 200 mg/L; for acaricidal activity compared with etoxazole: Tetranychus cinnabarinus eggs and larvae, etoxazole as reference; for mortality at 0.001 µg/mL: read-out: mortality of mite larvae (%), 0.001 mg/L; for mortality at 0.01 µg/mL: read-out: mortality of mite larvae (%), 0.01 mg/L; for mortality at 0.5 µg/mL: read-out: mortality of mite larvae (%), 0.5 mg/L; for larvicidal activity, times that of etoxazole: relative to etoxazole.
Description: as §1
Tetranychus cinnabarinus bred indoors on bean seedlings was used as a test subject by the dipping method. Move adult mites onto the newly grown complete bean seedling leaves with two leaves, cut off the bean seedlings, place the bean seedlings in a greenhouse with illumination at 25° C. for laying eggs for 24 hours, then remove adult mites and keep mite eggs. And continuously culture in the greenhouse for 5 days until mite eggs hatch into mite larvae (ensuring that the number of the mites on each tested leaf is not less than 60).
Completely immerse the bean seedling leaves containing the mite larvae into the sample solution to be detected with Tween at the prepared concentration for 5-6 seconds by using tweezers, slightly throw off residual liquid, put the bean seedling leaves back to the culture cup, continuously culture for 4 days and check the result. One of the plants was immersed in a solution containing no sample to be tested and the remaining additives were identical to the sample solution as a blank control. Each compound was replicated three times.

The values that follow come from patent US12588678B2, “Oxazoline compound, synthesis method therefor and application thereof” (NANKAI UNIVERSITY, priority 2019, dated 2026).

As to `COCc1ccc(C2COC(c3c(F)cccc3F)=N2)cc1` (stereo not shown) [Compound R2-1], in assay [1], the mortality at 0.1 µg/mL amounted to 60%, the mortality at 1 µg/mL amounted to 97%, the mortality at 10 µg/mL was 100% and the mortality at 100 µg/mL worked out at 100%. Further, the mortality at 200 µg/mL in assay [1] was 100%. Besides, in assay [2], the mortality at 0.1 µg/mL is 50%, the mortality at 1 µg/mL is 85%, the mortality at 10 µg/mL worked out at 100% and the mortality at 100 µg/mL came to 100%. Moreover, the mortality at 200 µg/mL in assay [2] came to 100%.
Regarding `CCOCc1ccc(C2COC(c3c(F)cccc3F)=N2)cc1` (stereo not shown) [Compound R2-2], in assay [1], the mortality at 0.001 µg/mL amounted to 40%, the mortality at 0.01 µg/mL is 65%, the mortality at 0.1 µg/mL was determined as 85% and the mortality at 0.5 µg/mL stood at 90%. Further, in assay [1], the mortality at 1 µg/mL was determined as 95%, the mortality at 10 µg/mL turned out to be 100%, the mortality at 100 µg/mL is 100% and the mortality at 200 µg/mL worked out at 100%. Further, in assay [2], the “acaricidal activity compared with etoxazole” value is given as “higher acaricidal activity than etoxazole”, the mortality at 0.001 µg/mL stood at 30%, the mortality at 0.01 µg/mL came to 50% and the mortality at 0.1 µg/mL was determined as 80%. For the same molecule, in assay [2], the mortality at 0.5 µg/mL was 83%, the mortality at 1 µg/mL worked out at 90%, the mortality at 10 µg/mL was 90% and the mortality at 100 µg/mL came to 100%. Moreover, in assay [2], the mortality at 200 µg/mL came to 100%.
For the molecule `CCCOCc1ccc(C2COC(c3c(F)cccc3F)=N2)cc1` (stereo not shown) [Compound R2-3], in assay [1], the mortality at 0.001 µg/mL came to 50%, the mortality at 0.01 µg/mL amounted to 77%, the mortality at 0.1 µg/mL amounted to 85% and the mortality at 0.5 µg/mL stood at 92%. Besides, in assay [1], the mortality at 1 µg/mL is 100%, the mortality at 10 µg/mL came out at 100%, the mortality at 100 µg/mL was found to be 100% and the mortality at 200 µg/mL stood at 100%. In addition, the “activity on mite eggs, times that of etoxazole” value in assay [1] worked out at 105 times. Moreover, in assay [2], the “acaricidal activity compared with etoxazole” value is “higher acaricidal activity than etoxazole”, the mortality at 0.001 µg/mL worked out at 45%, the mortality at 0.01 µg/mL was determined as 70% and the mortality at 0.1 µg/mL was 90%. In addition, in assay [2], the mortality at 0.5 µg/mL is 91%, the mortality at 1 µg/mL was 95%, the mortality at 10 µg/mL amounted to 97% and the mortality at 100 µg/mL was 100%. Also, in assay [2], the mortality at 200 µg/mL came out at 100% and the “larvicidal activity, times that of etoxazole” value amounted to 58 times.
Regarding `FCCOCc1ccc(C2COC(c3c(F)cccc3F)=N2)cc1` (stereo not shown) [Compound R2-4], in assay [1], the mortality at 0.1 µg/mL was 70%, the mortality at 1 µg/mL was 90%, the mortality at 10 µg/mL was determined as 98% and the mortality at 100 µg/mL came to 100%. The mortality at 200 µg/mL in assay [1] stood at 100%. In assay [2], the mortality at 0.1 µg/mL is 70%, the mortality at 1 µg/mL was determined as 85%, the mortality at 10 µg/mL was 92% and the mortality at 100 µg/mL is 100%. The mortality at 200 µg/mL in assay [2] worked out at 100%.
On to `Fc1cccc(F)c1C1=NC(c2ccc(COCC(F)(F)F)cc2)CO1` (stereo not shown) [Compound R2-5], for which, in assay [1], the mortality at 0.001 µg/mL worked out at 47%, the mortality at 0.01 µg/mL was 70%, the mortality at 0.1 µg/mL came out at 90% and the mortality at 0.5 µg/mL was 90%. In assay [1], the mortality at 1 µg/mL was 97%, the mortality at 10 µg/mL was found to be 100%, the mortality at 100 µg/mL was determined as 100% and the mortality at 200 µg/mL turned out to be 100%. Moreover, in assay [1], the “activity on mite eggs, times that of etoxazole” value stood at 105 times. Also, in assay [2], the “acaricidal activity compared with etoxazole” value is “higher acaricidal activity than etoxazole”, the mortality at 0.001 µg/mL is 37%, the mortality at 0.01 µg/mL came to 65% and the mortality at 0.1 µg/mL was determined as 90%. Also, in assay [2], the mortality at 0.5 µg/mL was determined as 90%, the mortality at 1 µg/mL was found to be 95%, the mortality at 10 µg/mL is 100% and the mortality at 100 µg/mL was determined as 100%. Also, in assay [2], the mortality at 200 µg/mL was 100% and the “larvicidal activity, times that of etoxazole” value is given as 27 times.
In the case of `C=C(C)COCc1ccc(C2COC(c3c(F)cccc3F)=N2)cc1` (stereo not shown) [Compound R2-6], in assay [1], the mortality at 0.001 µg/mL turned out to be 30%, the mortality at 0.01 µg/mL worked out at 60%, the mortality at 0.1 µg/mL was 95% and the mortality at 0.5 µg/mL came out at 86%. For the same molecule, in assay [1], the mortality at 1 µg/mL amounted to 100%, the mortality at 10 µg/mL amounted to 100%, the mortality at 100 µg/mL is 100% and the mortality at 200 µg/mL turned out to be 100%. In addition, in assay [2], the “acaricidal activity compared with etoxazole” value was “higher acaricidal activity than etoxazole”, the mortality at 0.001 µg/mL was found to be 21%, the mortality at 0.01 µg/mL was determined as 45% and the mortality at 0.1 µg/mL stood at 80%. For the same molecule, in assay [2], the mortality at 0.5 µg/mL was 80%, the mortality at 1 µg/mL worked out at 90%, the mortality at 10 µg/mL was 100% and the mortality at 100 µg/mL was 100%. Besides, the mortality at 200 µg/mL in assay [2] stood at 100%.
On to `C#CCCOCc1ccc(C2COC(c3c(F)cccc3F)=N2)cc1` (stereo not shown) [Compound R2-7], for which, in assay [1], the mortality at 0.1 µg/mL was found to be 70%, the mortality at 1 µg/mL was found to be 90%, the mortality at 10 µg/mL came to 95% and the mortality at 100 µg/mL was determined as 100%. Also, the mortality at 200 µg/mL in assay [1] came out at 100%. Moreover, in assay [2], the mortality at 0.1 µg/mL turned out to be 40%, the mortality at 1 µg/mL was determined as 75%, the mortality at 10 µg/mL was determined as 90% and the mortality at 100 µg/mL was 100%. For the same molecule, the mortality at 200 µg/mL in assay [2] was 100%.
In the case of `Fc1cccc(F)c1C1=NC(c2ccc(COCC#Cc3ccccc3)cc2)CO1` (stereo not shown) [Compound R2-8], in assay [1], the mortality at 0.1 µg/mL was found to be 60%, the mortality at 1 µg/mL was determined as 80%, the mortality at 10 µg/mL is 90% and the mortality at 100 µg/mL is 100%. Also, the mortality at 200 µg/mL in assay [1] stood at 100%. Moreover, in assay [2], the mortality at 0.1 µg/mL was 50%, the mortality at 1 µg/mL was 80%, the mortality at 10 µg/mL worked out at 92% and the mortality at 100 µg/mL was 100%. Moreover, in assay [2], the mortality at 200 µg/mL was 100%.
Take `Fc1cccc(F)c1C1=NC(c2ccc(COCC3CCCO3)cc2)CO1` (stereo not shown) [Compound R2-9]: in assay [1], the mortality at 1 µg/mL stood at 55%, the mortality at 10 µg/mL was 85%, the mortality at 100 µg/mL was 100% and the mortality at 200 µg/mL worked out at 100%. Moreover, in assay [2], the mortality at 1 µg/mL was 30%, the mortality at 10 µg/mL came out at 75%, the mortality at 100 µg/mL was found to be 95% and the mortality at 200 µg/mL is 100%.
For the molecule `Fc1cccc(F)c1C1=NC(c2ccc(COCc3ccco3)cc2)CO1` (stereo not shown) [Compound R2-10], in assay [1], the mortality at 10 µg/mL is 75%, the mortality at 100 µg/mL came to 100% and the mortality at 200 µg/mL amounted to 100%. Besides, in assay [2], the mortality at 10 µg/mL came to 62%, the mortality at 100 µg/mL amounted to 80% and the mortality at 200 µg/mL came out at 95%.
Take `Fc1cccc(F)c1C1=NC(c2ccc(COCc3cccs3)cc2)CO1` (stereo not shown) [Compound R2-11]: in assay [1], the mortality at 1 µg/mL turned out to be 75%, the mortality at 10 µg/mL turned out to be 90%, the mortality at 100 µg/mL amounted to 100% and the mortality at 200 µg/mL stood at 100%. Also, in assay [2], the mortality at 1 µg/mL turned out to be 70%, the mortality at 10 µg/mL stood at 80%, the mortality at 100 µg/mL is 100% and the mortality at 200 µg/mL came to 100%.
Turning to `Fc1cccc(F)c1C1=NC(c2ccc(COc3ccccn3)cc2)CO1` (stereo not shown) [Compound R2-12], in assay [1], the mortality at 1 µg/mL was 65%, the mortality at 10 µg/mL worked out at 90%, the mortality at 100 µg/mL stood at 100% and the mortality at 200 µg/mL came out at 100%. Further, in assay [2], the mortality at 1 µg/mL came out at 50%, the mortality at 10 µg/mL amounted to 95%, the mortality at 100 µg/mL was found to be 100% and the mortality at 200 µg/mL was found to be 100%.
